Measurements from patent US20260242350A1, “POLYCYCLIC THYROID HORMONE BETA RECEPTOR AGONIST AND USE THEREOF” (CASCADE PHARMACEUTICALS, INC., priority 2023, published 2026).
pEC50: −log10 of the molar value.

Assays:
[1] = target: T1, THRβ (pGAL4-THRβ-LBD) (Homo sapiens, UniProt P10828); assay: Reporter gene (Dual-Glo luciferase) agonist activity assay in HEK293T cells, THRβ; format: cell-based; settings: ratio of EC50 THRα/THRβ
T1 construct: expressed in transfected cells; host or cells: HEK293T
T1 sequence (P10828 217-461): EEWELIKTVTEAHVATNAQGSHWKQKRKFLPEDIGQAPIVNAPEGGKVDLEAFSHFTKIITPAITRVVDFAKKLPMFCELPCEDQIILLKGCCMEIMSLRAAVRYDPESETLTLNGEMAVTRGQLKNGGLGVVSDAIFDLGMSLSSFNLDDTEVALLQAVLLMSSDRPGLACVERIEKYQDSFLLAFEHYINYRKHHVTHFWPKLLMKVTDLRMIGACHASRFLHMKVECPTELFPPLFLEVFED
Source text: Experimental Example 2: Detection of Agonist Activities of Compounds Against THRα and THRβ Based on Reporter Gene Activity Assay Method
1.1 Construction and Preparation of Plasmids pGAL4-THR-LBD and pG5-Luc
The pGAL4-THRα-LBD and pGAL4-THRβ-LBD plasmids used in the reporter gene assay system were constructed by a conventional molecular cloning method comprising the following main steps: the cDNA sequences of THRα (NM_003250) and THRβ(NM_000461) corresponding to the amino acid sequences of THRα (163-407AA) and THRβ(217-461AA) were inserted into the BamHI and NotI enzyme digestion sites of the pGAL4 vector by the PCR technique respectively to obtain the pGAL4-THRα-LBD and pGAL4-THRβ-LBD plasmids; the pG5-Luc (#E249A) and pRL-TK (#E2241) plasmids were purchased from Promega; the plasmids were transfected into the E. coli DH5a by the CaCl2 method, and after further culture and amplification, the plasmids were purified by Plasmid Extraction Kits (TIANGEN, #D107) to obtain the corresponding plasmid DNAs.
1.2 Co-Transfection of Plasmids into HEK293T Cells and Treatment with Compounds
The HEK293T cells were inoculated into a 96-well plate at a density of 1×10^4/well the day before plasmid transfection. Cell transfection was conducted according to the instructions of the transfection reagent FuGENE® HD (Promega, #E2311). The main steps were as follows: taking one well as an example here, the plasmids pGAL4-THRα-LBD or pGAL4-THRβ-LBD, pG5-Luc, and pRL-TK were added in the proportions of 20 ng, 50 ng, and 5 ng to 10 μL of Opti-MEM™ I medium (Gibco, #11058021) and mixed well; subsequently, 0.25 μL of FuGENE® HD was added, mixed well, and then left at room temperature for 5 min; afterwards, […] was added to the cell wells containing 100 μL of culture medium. After cell co-transfection for 6 h, the compound was diluted in a 3-fold gradient with dimethyl sulfoxide at the highest concentration of 1 μM. The compound was added to the cell culture medium at a total of 10 concentrations for treatment for 24 h. There were a total of two duplicate wells for each concentration. Triiodothyronine (T3) was used as the positive control.
1.3 Dual-Glo Luciferase Assay
After the cells were treated with the compound for 24 h, the cells were assayed according to the instructions of Dual-Glo® Luciferase Assay System (Promega, #E2940). The main steps were as follows: 50 μL of culture medium was aspirated from each well and discarded, and then 50 μL of Dual-Glo® Luciferase reagent was added and oscillated at room temperature for 10 min; 80 μL of lysis reaction solution was measured into a white opaque optiPlate-96-well plate, and the luminescence signal value (Firefly-Luc) of the Firefly luciferase was detected using an MD i3x multi-mode microplate reader; 40 μL of Dual-Glo® Stop & Glo® reagent was then added, and oscillated at room temperature for 10 min; the luminescence signal value (Renilla-Luc) of the Renilla luciferase was then detected using an MD i3x multi-mode microplate reader. The Firefly-Luc/Renilla-Luc ratio was used as the activation activity of the compound against THR, and was normalized against the ratio in the vehicle DMSO group; the dose-response curve was fitted with four parameters using the GraphPad Prism6.0 software, and the EC50 value was calculated.

[2] = target: T2, THRβ LBD (His-GST-dLBT-THRβLBD) (Homo sapiens, UniProt P10828); assay: THR-FRET (time-resolved fluorescence resonance energy transfer) agonist activity assay, THRβ; format: biochemical; settings: for pEC50: 24 h at room temperature; for Selectivity (THRα/THRβ): ratio of EC50 THRα/THRβ
T2 construct: made in house; host or cells: E. coli BL21 (DE3)
T2 sequence (P10828 217-461 limits assumed): T1 sequence (P10828 217-461)
Source text: (§1) Experimental Example 1: Detection of Agonist Activities of Compounds Against THRα/β Based on Time-Resolved Fluorescence Resonance Energy Transfer (THR-FRET)
(§2) 1. Construction of THRα/β Overexpression Vectors
(§3) By visiting NCBI, the THRα/β LBD domain sequences were found. The pET21-His-GST-dLBT-THRα LBD and pET21-His-GST-dLBT-THRβLBD overexpression vectors were constructed by the fusion method, and sequenced to confirm the accuracy of the sequences.
(§4) 2. Prokaryotic Expression of Recombinant Proteins in E. coli
(§5) The THRα LBD and THRβLBD overexpression vectors confirmed by sequencing were transfected into E. coli cells BL21 (DE3), and spread on an ampicillin-resistant agar plate. Monoclones were picked out and amplified in an LB medium, and transferred into 1 L LB at a ratio of 1:100 for large-scale culture. When the OD value was at 0.8 to 1.2, 0.5 mM isopropyl-beta-D-thiogalactopyranoside (IPTG) was added, and induced overnight at 18° C. The bacteria were harvested, disrupted, and purified via the GST column and the molecular sieve to obtain two proteins His-GST-dLBT-THRα LBD and His-GST-dLBT-THRβLBD.
(§6) 3. Preparation of Compounds and Formulation of Reaction System
(§7) The proteins were taken out from a refrigerator at −80° C. The protein s with the GST-tagged THRα/p LBD domain and the Eu-labelled GST antibodies were thawed slowly on ice, and an assay buffer containing a final concentration of 5 mM dithiothreitol (DTT) was formulated.
(§8) 3.1 Preparation of Compounds
(§9) The starting concentration of the compound was 10 μM (in DMSO). The compound (100 μM in DMSO) was subjected to 3-fold isogradient dilution with DMSO to obtain a total of 11 isogradient concentrations. Subsequently, the above compounds at the isogradient concentration were further subjected to 50-fold dilution with an assay buffer containing 5 mM DTT.
(§10) 3.2 Formulation of THR-FRET Reaction System
(§11) The final concentrations of all components were calculated based on a system with a final volume of 20 µL per well. To […] of assay buffer containing 5 mM DTT, the GST-tagged THRα/β proteins, the SRC2 ([…]) polypeptide, XL665 (Cisobio, #610SAXLB), and the Eu-labeled GST antibody were added, and the final concentrations were 2 nM, 200 nM, 0.05 nM, and 7.6 nM respectively to formulate 18 μL of reaction mixture of the proteins, polypeptide, and antibody per well.
(§12) 18 μL of reaction mixture and 2 μL of diluted compound were added into an optiplate-384-well plate, and reacted at room temperature for 24 h.
(§13) The plate was read using an MD i3x multi-mode microplate reader with the excitation and emission wavelengths of 340 nm and 665 nm, respectively. The intensity of light at a wavelength of 616 nm generated by europium excited by 340 nm wavelength light from the MD i3x multi-mode microplate reader was used as the background. According to the different activation degrees of different compounds against THRα and THRβ, the intensity of the emission light at a wavelength of 665 nm generated by exciting XL665 with the exciting light at a wavelength of 616 nm was varied. The intensity ratio between these two light wavelengths (665 nm, 616 nm) was used as the activation activity of the compound against THRα or THRβ, and was normalized against the ratio in the vehicle DMSO group. The dose-response curve was fitted with four parameters using the GraphPad Prism 6.0 software, and the EC50 value was calculated.

[3] = target: T3, THRα LBD (His-GST-dLBT-THRα LBD) (Homo sapiens, UniProt P10827); assay: THR-FRET (time-resolved fluorescence resonance energy transfer) agonist activity assay, THRα; format: biochemical; settings: 24 h at room temperature
T3 construct: made in house; host or cells: E. coli BL21 (DE3)
T3 sequence (P10827 163-407 isoform P10827-2): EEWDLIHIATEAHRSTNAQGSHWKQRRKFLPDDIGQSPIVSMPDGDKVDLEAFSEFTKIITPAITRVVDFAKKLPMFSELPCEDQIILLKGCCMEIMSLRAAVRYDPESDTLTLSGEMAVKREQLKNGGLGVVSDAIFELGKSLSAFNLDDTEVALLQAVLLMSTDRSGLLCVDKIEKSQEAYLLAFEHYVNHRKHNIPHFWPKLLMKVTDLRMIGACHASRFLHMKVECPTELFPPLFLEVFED
Source text: as §1, §2, §3, §4, §5, §6, §7, §8, §9, §10, §11, §12, §13

SMILES | Selectivity (THRα/THRβ) [1] | pEC50 [2] | Selectivity (THRα/THRβ) [2] | pEC50 [3]
O=c1[nH]c(=O)n(-c2cc(Cl)c(Cn3ccc(=O)c4ccccc43)c(Cl)c2)nc1CF [Compound 37] | †††† (THRα/β > 20) | 7.00 to 7.30 | †† (10 > THRα/β > 1) | 6.00 to 7.00
Nc1nn(-c2cc(Cl)c(Cn3ccc(=O)c4ccccc43)c(Cl)c2)c(=O)[nH]c1=O [Compound 32] | † (5 ≥ THRα/β) | 6.00 to 7.00 | †† (10 > THRα/β > 1) | 5.00 to 6.00
Cc1cccc2c1c(=O)ccn2Cc1c(Cl)cc(-n2ncc(=O)[nH]c2=O)cc1Cl [Compound 14] | † (5 ≥ THRα/β) | 6.00 to 7.00 | †† (10 > THRα/β > 1) | 6.00 to 7.00
Cc1nn(-c2cc(Br)c(Cn3ccc(=O)c4ccccc43)c(Br)c2)c(=O)[nH]c1=O [Compound 43] | † (5 ≥ THRα/β) | 7.00 to 7.30 | †† (10 > THRα/β > 1) | 6.00 to 7.00
Cc1nn(-c2cc(Cl)c(Cn3ccc(=O)c4ccccc43)c(Cl)c2)c(=O)[nH]c1=O [Compound 41] | † (5 ≥ THRα/β) | 6.00 to 7.00 | †† (10 > THRα/β > 1) | 5.00 to 6.00
O=c1[nH]c(=O)n(-c2cc(Cl)c(Cn3ccc(=O)c4ccccc43)c(Cl)c2)nc1C(F)F [Compound 28] | †††† (THRα/β > 20) | > 7.30 | †† (10 > THRα/β > 1) | 6.00 to 7.00
Cc1nn(-c2cc(Br)c(Cn3ccc(=O)c4c(C)cccc43)c(Br)c2)c(=O)[nH]c1=O [Compound 45] | † (5 ≥ THRα/β) | > 7.30 | †† (10 > THRα/β > 1) | 6.00 to 7.00
Cc1cccc2c1c(=O)ccn2Cc1c(Cl)cc(-n2nc(C(F)F)c(=O)[nH]c2=O)cc1Br [Compound 48] | † (5 ≥ THRα/β) | > 7.30 | †† (10 > THRα/β > 1) | > 7.30
[2H]C(F)(F)c1nn(-c2cc(Br)c(Cn3ccc(=O)c4ccccc43)c(Br)c2)c(=O)[nH]c1=O [Compound 71] | †††† (THRα/β > 20) | > 7.30 | †† (10 > THRα/β > 1) | 7.00 to 7.30
O=c1cnn(-c2cc(Cl)c(Cn3ccc(=O)c4ccccc43)c(Cl)c2)c(=O)[nH]1 [Compound 1] | † (5 ≥ THRα/β) | 6.00 to 7.00 | †† (10 > THRα/β > 1) | 5.00 to 6.00
O=c1cnn(-c2cc(Cl)c(Cn3ccc(=O)c4c(Cl)cccc43)c(Cl)c2)c(=O)[nH]1 [Compound 13] | † (5 ≥ THRα/β) | 6.00 to 7.00 | †† (10 > THRα/β > 1) | 5.00 to 6.00
O=c1[nH]c(=O)n(-c2cc(Cl)c(Cn3ccc(=O)c4ccccc43)c(Br)c2)nc1C(F)F [Compound 30] | †††† (THRα/β > 20) | > 7.30 | †† (10 > THRα/β > 1) | 6.00 to 7.00
[2H]C(c1c(Br)cc(-n2nc(C(F)F)c(=O)[nH]c2=O)cc1Br)n1ccc(=O)c2ccccc21 (centres unmarked) [Compound 72] | ††† (20 ≥ THRα/β > 10) | > 7.30 | †† (10 > THRα/β > 1) | 7.00 to 7.30
Cc1cccc2c1c(=O)ccn2Cc1c(Br)cc(-n2ncc(=O)[nH]c2=O)cc1Br [Compound 18] | †† (10 ≥ THRα/β > 5) | > 7.30 | †† (10 > THRα/β > 1) | 7.00 to 7.30
O=c1[nH]c(=O)n(-c2cc(Br)c(Cn3ccc(=O)c4ccccc43)c(Br)c2)nc1C(F)F [Compound 29] | †††† (THRα/β > 20) | > 7.30 | †† (10 > THRα/β > 1) | 7.00 to 7.30
O=c1cnn(-c2cc(Cl)c(Cn3ccc(=O)c4ccccc43)c(Br)c2)c(=O)[nH]1 [Compound 3] | † (5 ≥ THRα/β) | 6.00 to 7.00 | †† (10 > THRα/β > 1) | 6.00 to 7.00
C=Cc1nn(-c2cc(Cl)c(Cn3ccc(=O)c4ccccc43)c(Cl)c2)c(=O)[nH]c1=O [Compound 35] | † (5 ≥ THRα/β) | 6.00 to 7.00 | †† (10 > THRα/β > 1) | 5.00 to 6.00
